Results from patent publication US20110250135A1, “Piperazine Derivatives for Binding and Imaging Amyloid Plaques and Their Use” (Bayer Schering Pharma Aktiengesellschaft, priority 2008, published 2011).

Experiments:
[1] = Biodistribution: organ distribution of F-18 signal in mice; assay type: in vivo, male NMRI mice; conditions: for Organ distribution of F-18 signal, intestine: intestine (with content); for Organ distribution of F-18 signal, stomach: stomach (without content)
Method: Biodistribution and excretion studies were performed in male NMRI mice (body weight app. 30g; 3 animals per time point). The animals were kept under normal laboratory conditions at a temperature of 22±2° C. and a dark/light rhythm of 12 hours. Food and water were provided ad libitium. During an acclimation period of at least 3 days before the beginning of the study animals were clinically examined to ascertain the absence of abnormal clinical signs. At 2, 5, 30, 60, 240 min post intravenous injection via the tail vein of ca. 150 kBq in 100 μl of the test compound, urine and feces were quantitatively collected. At the same time points, animals were sacrificed by decapitation and under isoflurane anaesthesia and the following organs and tissues were removed for the determination of radioactivity using a gamma-counter: spleen, liver, kidney, lung, femur, heart, brain, fat, thyroid, muscle, skin, blood, tail, stomach (without content), testicle, intestine (with content), pancreas, adrenals, and the remaining body. For analysis the decay corrected percentage of the injected dose per tissue weight (% ID/g±standard deviation) was calculated.

Aβ plaques = target: T1, Aβ plaques (Homo sapiens, UniProt P05067); test: Autoradiographical analysis of binding to cryosections from cortex of AD patients and controls; conditions: F-18 labeled compound; Alzheimer's disease patients (AD) vs controls without Aβ plaques
T1 construct: controls without Aβ plaques; from tissue; host or cells: frontal lobe / cortex sections (frozen and paraffin) from AD patients, FTD patients and age-matched controls
From the text: Fresh frozen as well as paraffin embedded sections of the frontal lobe from Alzheimer's dementia patients, frontotemporal dementia patients and age matched controls were used for the study. Frozen sections, sliced at 18 μm thickness on a cryostate (Leica, Germany) and paraffin sections, sliced on a sliding microtom (Leica) at a thickness of 6 μm, were mounted onto glass slides (Superfrost Plus, Fa.Menzel, Braunschweig Germany). Frozen sections were allowed to adhere to the slides for several nights at −20° C. The paraffin sections were deparaffinized using routine histological methods. For binding studies sections were incubated with the F-18 labeled test compound at 10 Bq/μl diluted in 25 mM Hepes buffer, pH 7.4, 0.1% (BSA) (200-300 μl/slide) for 1.5 hour at room temperature in a humidified chamber. For blocking experiments a 1000-fold access of the unlabeled test substance was added to the incubation mixture. After hybridization, sections were washed four times with Hepes buffer, 0.1% BSA (or alternatively two times with 40% ethanol) and finally dipped two times into dest. water for 10 sec. The air-dried sections were exposed to imaging plates and signals were detected by a phosphoimager device (Fuji BAS5000).

T1 sequence (P05067 672-713 limits assumed): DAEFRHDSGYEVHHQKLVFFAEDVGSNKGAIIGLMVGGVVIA

## O=C(NCC(=O)N1CCN(c2ccc(OCc3ccccc3)cc2)CC1)c1ccc([18F])nc1 [Example 10e, N-{2-[4-(4-Benzyloxy-phenyl)-piperazin-1-yl]-2-oxoethyl}-6-[F-18]-fluoro-nicotinamide]
[1]; 2 min post i.v. injection
  Organ distribution of F-18 signal, adrenals: 7.86 % ID/g
  Organ distribution of F-18 signal, blood: 2.01 % ID/g
  Organ distribution of F-18 signal, brain: 4.99 % ID/g
  Organ distribution of F-18 signal, fat: 1.79 % ID/g
  Organ distribution of F-18 signal, femur: 1.44 % ID/g
  Organ distribution of F-18 signal, heart: 5.18 % ID/g
  Organ distribution of F-18 signal, intestine: 2.13 % ID/g
  Organ distribution of F-18 signal, kidney: 8.58 % ID/g
  Organ distribution of F-18 signal, liver: 7.44 % ID/g
  Organ distribution of F-18 signal, lung: 4.31 % ID/g
  Organ distribution of F-18 signal, muscle: 2.40 % ID/g
  Organ distribution of F-18 signal, pancreas: 4.59 % ID/g
  Organ distribution of F-18 signal, skin: 1.37 % ID/g
  Organ distribution of F-18 signal, spleen: 1.96 % ID/g
  Organ distribution of F-18 signal, stomach: 3.69 % ID/g
  Organ distribution of F-18 signal, tail: 8.65 % ID/g
  Organ distribution of F-18 signal, testicle: 1.53 % ID/g
  Organ distribution of F-18 signal, thyroid: 2.51 % ID/g
[1]; 5 min post i.v. injection
  Organ distribution of F-18 signal, adrenals: 6.20 % ID/g
  Organ distribution of F-18 signal, blood: 1.98 % ID/g
  Organ distribution of F-18 signal, brain: 4.33 % ID/g
  Organ distribution of F-18 signal, fat: 2.66 % ID/g
  Organ distribution of F-18 signal, femur: 1.53 % ID/g
  Organ distribution of F-18 signal, heart: 4.49 % ID/g
  Organ distribution of F-18 signal, intestine: 2.40 % ID/g
  Organ distribution of F-18 signal, kidney: 7.92 % ID/g
  Organ distribution of F-18 signal, liver: 12.02 % ID/g
  Organ distribution of F-18 signal, lung: 3.86 % ID/g
  Organ distribution of F-18 signal, muscle: 2.07 % ID/g
  Organ distribution of F-18 signal, pancreas: 4.54 % ID/g
  Organ distribution of F-18 signal, skin: 1.76 % ID/g
  Organ distribution of F-18 signal, spleen: 1.99 % ID/g
  Organ distribution of F-18 signal, stomach: 2.84 % ID/g
  Organ distribution of F-18 signal, tail: 6.65 % ID/g
  Organ distribution of F-18 signal, testicle: 1.81 % ID/g
  Organ distribution of F-18 signal, thyroid: 2.62 % ID/g
[1]; 30 min post i.v. injection
  Organ distribution of F-18 signal, adrenals: 2.36 % ID/g
  Organ distribution of F-18 signal, blood: 1.38 % ID/g
  Organ distribution of F-18 signal, brain: 1.44 % ID/g
  Organ distribution of F-18 signal, fat: 1.95 % ID/g
  Organ distribution of F-18 signal, femur: 1.15 % ID/g
  Organ distribution of F-18 signal, heart: 1.85 % ID/g
  Organ distribution of F-18 signal, intestine: 8.20 % ID/g
  Organ distribution of F-18 signal, kidney: 6.29 % ID/g
  Organ distribution of F-18 signal, liver: 9.60 % ID/g
  Organ distribution of F-18 signal, lung: 1.93 % ID/g
  Organ distribution of F-18 signal, muscle: 1.16 % ID/g
  Organ distribution of F-18 signal, pancreas: 2.27 % ID/g
  Organ distribution of F-18 signal, skin: 1.39 % ID/g
  Organ distribution of F-18 signal, spleen: 1.08 % ID/g
  Organ distribution of F-18 signal, stomach: 2.40 % ID/g
  Organ distribution of F-18 signal, tail: 1.86 % ID/g
  Organ distribution of F-18 signal, testicle: 1.28 % ID/g
  Organ distribution of F-18 signal, thyroid: 1.26 % ID/g
[1]; 60 min post i.v. injection
  Organ distribution of F-18 signal, adrenals: 0.67 % ID/g
  Organ distribution of F-18 signal, blood: 0.55 % ID/g
  Organ distribution of F-18 signal, brain: 0.44 % ID/g
  Organ distribution of F-18 signal, fat: 0.67 % ID/g
  Organ distribution of F-18 signal, femur: 1.43 % ID/g
  Organ distribution of F-18 signal, heart: 0.69 % ID/g
  Organ distribution of F-18 signal, intestine: 10.63 % ID/g
  Organ distribution of F-18 signal, kidney: 2.61 % ID/g
  Organ distribution of F-18 signal, liver: 5.27 % ID/g
  Organ distribution of F-18 signal, lung: 0.89 % ID/g
  Organ distribution of F-18 signal, muscle: 0.34 % ID/g
  Organ distribution of F-18 signal, pancreas: 0.92 % ID/g
  Organ distribution of F-18 signal, skin: 0.51 % ID/g
  Organ distribution of F-18 signal, spleen: 0.35 % ID/g
  Organ distribution of F-18 signal, stomach: 1.09 % ID/g
  Organ distribution of F-18 signal, tail: 1.00 % ID/g
  Organ distribution of F-18 signal, testicle: 0.52 % ID/g
  Organ distribution of F-18 signal, thyroid: 0.56 % ID/g
[1]; 240 min post i.v. injection
  Organ distribution of F-18 signal, adrenals: 0.43 % ID/g
  Organ distribution of F-18 signal, blood: 0.09 % ID/g
  Organ distribution of F-18 signal, brain: 0.04 % ID/g
  Organ distribution of F-18 signal, fat: 0.15 % ID/g
  Organ distribution of F-18 signal, femur: 1.75 % ID/g
  Organ distribution of F-18 signal, heart: 0.11 % ID/g
  Organ distribution of F-18 signal, intestine: 6.90 % ID/g
  Organ distribution of F-18 signal, kidney: 0.50 % ID/g
  Organ distribution of F-18 signal, liver: 2.29 % ID/g
  Organ distribution of F-18 signal, lung: 0.10 % ID/g
  Organ distribution of F-18 signal, muscle: 0.06 % ID/g
  Organ distribution of F-18 signal, pancreas: 1.07 % ID/g
  Organ distribution of F-18 signal, skin: 0.08 % ID/g
  Organ distribution of F-18 signal, spleen: 0.06 % ID/g
  Organ distribution of F-18 signal, stomach: 0.50 % ID/g
  Organ distribution of F-18 signal, tail: 0.69 % ID/g
  Organ distribution of F-18 signal, testicle: 0.06 % ID/g
  Organ distribution of F-18 signal, thyroid: 0.35 % ID/g
Aβ plaques
  autoradiographical analysis of binding to cryosections from cortex: Specific binding in plaque-rich regions of AD samples
